Earlier results on one molecule are cited in patent US11446277B2, “Penetrating pain relief cream” (priority 2019, dated 2022).

For data set [1], the system named is aggressive human breast cancer cells. Conditions: in vitro.

For `C=C(C)[C@@H]1CCC(C)=C[C@H]1c1c(O)cc(CCCCC)cc1O` [CBD, Cannabidiol], in data set [1], the “growth of aggressive human breast cancer cells” value was “reduce growth” and the “invasiveness of aggressive human breast cancer cells” value is given as “reduce their invasiveness”. In addition, in the data set with bacteria, the growth of bacteria entry is “inhibit the growth of bacteria”. In addition, where the note is “animal studies”, the analgesic properties entry is “analgesic properties” and the anti-inflammatory activity entry is on record as “anti-inflammatory activity”. Moreover, the sedation result (animal tests) was “sedative effects”.
